Data on 11 molecules can be found in US20240252677A1, “ONE-COMPONENT DELIVERY SYSTEM FOR NUCLEIC ACIDS” (The Trustees of the University of Pennsylvania, priority 2021, published 2024).

For orientation: pKa means the pH at which an ionisable group is half protonated.

The nature of data set [1]: Dimensions (size, PDI) of DNPs co-assembled from IAJDs and Luc-mRNA by DLS. In kind it is physicochemical. A digest of the protocol:
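IAJDs (80 mg/mL ethanol stock) rapidly injected into Luc-mRNA (4.0 mg/mL stock) diluted in 10 mM acetate buffer pH 4.0, then vortexed 5 s. Size and polydispersity of resulting DNPs measured by DLS (633 nm laser, 175° detection) at 23 °C.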

Data set [2] can be described thus: Stability of DNPs by DLS after storage at 5° C. In kind it is physicochemical. More on the design: key to Original size distribution type (DLS curve) / Size distribution type (DLS curve): U: DLS curve showed unimodal size distribution; B: DLS curve showed bimodal size distribution; M: DLS curve showed multimodal size distribution. Particulars: for pH Sample: DNPs: IAJD 4.0 mg/mL + Luc-mRNA 0.1 mg/mL, injection in acetate buffer pH 4.00; for PDI / Size (d, nm) / Original size distribution type (DLS curve): IAJD 4.0 mg/mL + Luc-mRNA 0.1 mg/mL; for PDI / Size (d, nm): acetate buffer; for Original size distribution type (DLS curve): before storage, acetate buffer pH 4.00. A digest of the protocol: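 DNPs in acetate buffer sized by DLS after storage at 5 °C. Stability ranked Excellent, Good or Not stable according to retention, shrinkage or growth of original size and narrowing or broadening of size distribution.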

Data set [3] is described as follows: pKa measurements of individual IAJD molecules by titration. It counts as physicochemical. Particulars: ethanol saturated with NaCl, titrated with 0.1 M aqueous HCl; individual IAJD molecules, titration. In short, it runs like this: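 Compound dissolved at 1.5 mg/mL in NaCl-saturated ethanol and titrated with 0.1 M HCl in 7.5 μL steps, pH read by electrode after each addition. pKa taken from the half-equivalence point.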

The subject of another data set is spleen. Nature of the data set: In vivo mRNA delivery, IVIS imaging of organs: spleen. Also noted: species or system mice; key to Organs with luminescence: spleen: strong: Strong meant the luminescence intensity in that organ was relatively high, compared to other organs; weak: Weak meant the luminescence intensity in that organ was relatively low, compared to other organs. The note with it: Table 17; mice, IVIS, 4-6 h after injection; intensity relative to other organs.

[4] abbreviates: Table 16, DNPs from IAJD 4 mg/mL and Luc-mRNA 0.10 mg/mL by injection in acetate buffer (10 mM, pH 4.0).
[5] abbreviates: Table 17, DNPs used in vivo, IAJD 4 mg/mL, Luc-mRNA 0.10 mg/mL, acetate pH 4.0.

With `CCCCCCCCCCCCCCCOc1cc(COC(=O)CCCN2CCN(C)CC2)cc(OCCCCCCCCCCCCC)c1` [IAJD 145, 3-(pentadecyloxy)-5-(tridecyloxy)benzyl 4-(4-methylpiperazin-1-yl)butanoate], in data set [1] (setting [4]), the PDI was found to be 0.306 and the “Size (d, nm)” value was determined as 194 nm. Also, in data set [1] (setting [5]), the PDI was 0.306 and the “Size (d, nm)” value was determined as 194 nm. In addition, in data set [2], the “pH Sample” value is recorded as 4.51 and the “Original size distribution type (DLS curve)” value was “(U)”. In addition, in data set [2] (after 27 days at 5° C.), the “Size distribution type (DLS curve)” value is listed as “(U)”; the PDI came to 0.330; the “Size (d, nm)” value came to 189 nm. This molecule gave a pKa in data set [3] of 6.28. Also, in the data set on spleen, the “Organs with luminescence: spleen” value was “spleen (strong)”.

For `CCCCCCCCCCCCCCCOc1cc(COC(=O)CCCN2CCN(CCO)CC2)cc(OCCCCCCCCCCCCC)c1` [IAJD 146, 3-(Pentadecyloxy)-5-(tridecyloxy)benzyl 4-(4-(2-hydroxyethyl)piperazin-1-yl)butanoate], in data set [1] (setting [4]), the PDI was determined as 0.276 and the “Size (d, nm)” value was determined as 231 nm. Besides, in data set [1] (setting [5]), the PDI was 0.276 and the “Size (d, nm)” value was found to be 231 nm. Besides, in data set [2], the “pH Sample” value was 4.40 and the “Original size distribution type (DLS curve)” value is “(U)”. Besides, in data set [2] (after 27 days at 5° C.), the “Size distribution type (DLS curve)” value is listed as “(U)”; the PDI is on record as 0.285; the “Size (d, nm)” value is given as 227 nm. In data set [3], this molecule returned a pKa of 6.59. The “Organs with luminescence: spleen” value in the data set with spleen is “spleen (strong)”.

Turning to `CCCCCCCCCCCCCCCOc1cc(COC(=O)CCCN2CCN(C)CC2)cc(OCCCCCCCCCCCCCC)c1` [IAJD 147, 3-(Pentadecyloxy)-5-(tetradecyloxy)benzyl 4-(4-methylpiperazin-1-yl)butanoate], in data set [1] (setting [4]), the PDI is 0.287 and the “Size (d, nm)” value is 144 nm. In data set [1] (setting [5]), the PDI is recorded as 0.287 and the “Size (d, nm)” value came to 144 nm. Further, in data set [2], the “pH Sample” value is listed as 4.50 and the “Original size distribution type (DLS curve)” value is “(U)”. In data set [2] (after 19 days at 5° C.), the “Size distribution type (DLS curve)” value is listed as “(U)”; the PDI is 0.283; the “Size (d, nm)” value is listed as 145 nm. This molecule yielded a pKa in data set [3] of 6.32. Further, the “Organs with luminescence: spleen” value in the data set on spleen was “spleen (strong)”.

For the molecule `CCCCCCCCCCCCCCCOc1cc(COC(=O)CCCN2CCN(CCO)CC2)cc(OCCCCCCCCCCCCCC)c1` [IAJD 148, 3-(Pentadecyloxy)-5-(tetradecyloxy)benzyl 4-(4-(2-hydroxyethyl)piperazin-1-yl)butanoate], in data set [1] (setting [4]), the PDI is listed as 0.339 and the “Size (d, nm)” value was 363 nm. In data set [1] (setting [5]), the PDI is 0.339 and the “Size (d, nm)” value is 363 nm. In addition, in data set [2], the “pH Sample” value was found to be 4.46 and the “Original size distribution type (DLS curve)” value is “(U)”. Further, in data set [2] (after 19 days at 5° C.), the “Size distribution type (DLS curve)” value is listed as “(B)”; the PDI was determined as 0.374; the “Size (d, nm)” value is on record as 405 nm. The same molecule gave a pKa in data set [3] of 6.65. Further, the “Organs with luminescence: spleen” value with spleen is listed as “spleen (strong)”.

With `CCCCCCCCCCCCCCCCOc1cc(COC(=O)CCCN2CCN(C)CC2)cc(OCCCCCCCCCCCCCCC)c1` [IAJD 149, 3-(Hexadecyloxy)-5-(pentadecyloxy)benzyl 4-(4-methylpiperazin-1-yl)butanoate], in data set [1] (setting [4]), the PDI is 0.304 and the “Size (d, nm)” value was 193 nm. Besides, in data set [1] (setting [5]), the PDI is recorded as 0.304 and the “Size (d, nm)” value worked out at 193 nm. In data set [2], the “pH Sample” value came out at 4.50 and the “Original size distribution type (DLS curve)” value was “(B)”. Further, in data set [2] (after 19 days at 5° C.), the “Size distribution type (DLS curve)” value is “(B)”; the PDI is 0.291; the “Size (d, nm)” value turned out to be 193 nm. Further, in data set [3], the pKa amounted to 6.5. In the data set with spleen, the “Organs with luminescence: spleen” value is reported as “spleen (strong)”.

For the molecule `CCCCCCCCCCCCCCCCOc1cc(COC(=O)CCCN2CCN(CCO)CC2)cc(OCCCCCCCCCCCCCCC)c1` [IAJD 150, 3-(Hexadecyloxy)-5-(pentadecyloxy)benzyl 4-(4-(2-hydroxyethyl)piperazin-1-yl)butanoate], in data set [1] (setting [4]), the PDI came out at 0.454 and the “Size (d, nm)” value is given as 285 nm. In data set [1] (setting [5]), the PDI is given as 0.454 and the “Size (d, nm)” value stood at 285 nm. In addition, in data set [2], the “pH Sample” value was determined as 4.51 and the “Original size distribution type (DLS curve)” value was “(B)”. Besides, in data set [2] (after 19 days at 5° C.), the “Size distribution type (DLS curve)” value is “(U)”; the PDI is 0.314; the “Size (d, nm)” value turned out to be 308 nm. Besides, the pKa in data set [3] was found to be 6.65. Further, in the data set with spleen, the “Organs with luminescence: spleen” value is reported as “spleen (strong)”.

For `CCCCCCCCCCCCCCCCCOc1cc(COC(=O)CCCN2CCN(C)CC2)cc(OCCCCCCCCCCCCCCC)c1` [IAJD 151, 3-(Heptadecyloxy)-5-(pentadecyloxy)benzyl 4-(4-methylpiperazin-1-yl)butanoate], in data set [1] (setting [4]), the PDI is given as 0.216 and the “Size (d, nm)” value is 287 nm. In data set [1] (setting [5]), the PDI amounted to 0.216 and the “Size (d, nm)” value came to 287 nm. For the same molecule, in data set [2], the “pH Sample” value was 4.57 and the “Original size distribution type (DLS curve)” value is recorded as “(U)”. In data set [2] (after 35 days at 5° C.), the “Size distribution type (DLS curve)” value is given as “(U)”; the PDI is 0.240; the “Size (d, nm)” value stood at 271 nm. The molecule further registered a pKa in data set [3] of 6.39. The “Organs with luminescence: spleen” value in the data set on spleen is reported as “spleen (strong)”.

Take `CCCCCCCCCCCCCCCCCOc1cc(COC(=O)CCCN2CCN(CCO)CC2)cc(OCCCCCCCCCCCCCCC)c1` [IAJD 152, 3-(Heptadecyloxy)-5-(pentadecyloxy)benzyl 4-(4-(2-hydroxyethyl)piperazin-1-yl)butanoate]: in data set [1] (setting [4]), the PDI is recorded as 0.370 and the “Size (d, nm)” value was 281 nm. Also, in data set [1] (setting [5]), the PDI is given as 0.370 and the “Size (d, nm)” value was 281 nm. In data set [2], the “pH Sample” value came to 4.45 and the “Original size distribution type (DLS curve)” value is reported as “(B)”. In data set [2] (after 35 days at 5° C.), the “Size distribution type (DLS curve)” value is reported as “(U)”; the PDI amounted to 0.286; the “Size (d, nm)” value came to 253 nm. The molecule further registered a pKa in data set [3] of 6.65. Further, the “Organs with luminescence: spleen” value with spleen is “spleen (strong)”.

`CCCCCCCCCCCCCCCCCCOc1cc(COC(=O)CCCN2CCN(C)CC2)cc(OCCCCCCCCCCCCCCC)c1` [IAJD 153, 3-(Octadecyloxy)-5-(pentadecyloxy)benzyl 4-(4-methylpiperazin-1-yl)butanoate]: in data set [1] (setting [4]), the PDI is on record as 0.238 and the “Size (d, nm)” value was 232 nm. Moreover, in data set [1] (setting [5]), the PDI amounted to 0.238 and the “Size (d, nm)” value was found to be 232 nm. For the same molecule, in data set [2], the “pH Sample” value is 4.52 and the “Original size distribution type (DLS curve)” value is recorded as “(U)”. In addition, in data set [2] (after 35 days at 5° C.), the “Size distribution type (DLS curve)” value is listed as “(U)”; the PDI was 0.232; the “Size (d, nm)” value is given as 222 nm. The molecule also gave a pKa in data set [3] of 6.42. The “Organs with luminescence: spleen” value in the data set with spleen is given as “spleen (strong)”.

On to `CCCCCCCCCCCCCCCCCCOc1cc(COC(=O)CCCN2CCN(CCO)CC2)cc(OCCCCCCCCCCCCCCC)c1` [IAJD 154, 3-(Octadecyloxy)-5-(pentadecyloxy)benzyl 4-(4-(2-hydroxyethyl)piperazin-1-yl)butanoate], for which, in data set [1] (setting [4]), the PDI came to 0.407 and the “Size (d, nm)” value amounted to 429 nm. In addition, in data set [1] (setting [5]), the PDI is 0.407 and the “Size (d, nm)” value was found to be 429 nm. Also, in data set [2], the “pH Sample” value is 4.47 and the “Original size distribution type (DLS curve)” value was “(B)”. In data set [2] (after 35 days at 5° C.), the “Size distribution type (DLS curve)” value was “(B)”; the PDI came to 0.471; the “Size (d, nm)” value is given as 372 nm. In data set [3], this molecule displayed a pKa of 6.48. Further, the “Organs with luminescence: spleen” value in the data set on spleen was “spleen (strong)”.

As to `CCCCCCCCCCCOc1cc(COC(=O)c2cc(OCCOCCOCCCC(=O)CCCN3CCCCC3)c(OCCOCCOCCOCc3ccccc3)c(OCCOCCOCCOC(=O)CCCN3CCCCC3)c2)cc(OCC(CC)CCCC)c1` (stereo not shown) [IAJD 155], in data set [1] (setting [4]), the PDI is 0.279 and the “Size (d, nm)” value came to 83 nm. Besides, in data set [1] (setting [5]), the PDI is recorded as 0.279 and the “Size (d, nm)” value was 83 nm. Besides, in data set [2], the “pH Sample” value is 4.93 and the “Original size distribution type (DLS curve)” value is given as “(U)”. In addition, in data set [2] (after 19 days at 5° C.), the “Size distribution type (DLS curve)” value is listed as “(U)”; the PDI is 0.259; the “Size (d, nm)” value is given as 86 nm. Besides, the pKa in data set [3] is 7.4. Moreover, in the data set with spleen, the “Organs with luminescence: spleen” value is on record as “spleen (weak)”.
